Laboratory results as given in US20040259926A1, “3-Aryloxy and 3-heteroaryloxy substituted benzo[b]thiophenes as therapeutic agents” (priority 2003, published 2004).

Molecular target: T1, PI3Kγ (recombinant p101/p110γ protein) (Homo sapiens, UniProt P48736)
T1 construct: HA; made in house; host or cells: Spodoptera frugiperda (Sf9) cells, baculovirus co-infection
Assay: PI3Kγ In Vitro Kinase Assay
Assay type: biochemical
Conditions: purified recombinant p101/p110γ with G protein β1/γ2 subunits; 20 μM ATP, [γ-32P-ATP]; 25 μM PIP2 lipid micelles; 20 minutes at room temperature
Protocol: Spodtera frugiperda cells, grown in ESF921 media, were coinfected with baculovirus expressing a glu-tagged […] and baculovirus expressing an HA-tagged p110γ, at a 3:1 ratio of p101 baculovirus to p110γ baculovirus. Sf9 cells were grown to 1×10^7 total cells/mL in 10 L bioreactors and harvested 48-72 hours post infection. Samples of infected cells were then tested for expression of p101/p110γ PI3 kinase by immunoprecipitation and Western Blot analysis methods (see below).
To purify PI3Kγ, 4 volumes of room temperature hypotonic lysis buffer (1 mM MgCl2, 1 mM DTT, 5 mM EGTA, 1 mM Pefabloc, 0.5 μM aprotinin, 5 μM leupeptin, 2 μM pepstatin, 5 μM E64, pH 8) per gram of cell paste, was poured onto frozen cell pellets with stirring, then lysed in a nitrogen “bomb” at 400 psi (599 HC T316, Parr Instrument Co, Moline, Ill.). NaCl was added to 150 mM, and sodium cholate was added to 1% and mixed for another 45 minutes. The lysates were clarified by centrifugation for 25 minutes at 14,000 rpm. The lysates were then loaded over anti-glu-linked Protein-G Sepaharose beads (Covance Research Products, Richmond, Calif.) using 20 mL resin/50 g cell paste. The column was washed with 15 volumes of wash buffer (1 mM DTT, 0.2 mM EGTA, 1 mM Pefabloc, 0.5 μM aprotinin, 5 μM leupeptin, 2 μM pepstatin, 5 μM E64, 150 mM NaCl, 1% sodium cholate, pH 8). PI3Kγ was eluted with 6 column volumes of wash buffer that contain 100 μg/mL of a peptide that competes for binding of the glu tag. The column fractions with the eluted protein (determined by taking OD280 readings) were collected and dialyzed in 0.2 mM EGTA, 1 mM DTT, 1 mM Pefabloc, 5 μM leupeptin, 0.5% sodium cholate, 150 mM NaCl, and 50% glycerol, pH 8. The fractions were stored at −80° C. until further use.
Spodtera frugiperda cells were coinfected with baculovirus expressing a glu-tagged G protein β1 and baculovirus expressing a G protein β2 at a 1:1 ratio of glu-tagged G protein β1 baculovirus to G protein β2 baculovirus. Sf9 cells are grown in 10 L bioreactors and harvested 48-72 hours post infection. Samples of infected cells were tested for G protein β1/β2 expression by Western Blot analysis, as described below. Cell lysates were homogenized and loaded onto a column of glu-tagged beads as in Biological Example 1 and competed off the column with a glu peptide and processed as described in Biological Example 1.
The inhibitory properties of the compounds in Table 1 were assayed in an in vitro PI3K assay. In a 96-well polypropylene plate, each well was spotted with 2 μL of 50 times the desired final concentration of compound in DMSO. Purified recombinant p101/p110γ protein (0.03 μg; ˜2.7 nM) and G protein β1/γ2 subunits (0.09 μg; ˜57.7 nM) for each reaction was combined in the assay buffer (30 mM HEPES, 100 mM NaCl, 1 mM EGTA, and 1 mM DTT). ATP and [γ-^32P-ATP] (0.09 μCi) were added to this mixture so that the final ATP concentration in the reaction was 20 μM. Lipid micelles were formed by sonicating phosphatidylinositol-4,5-diphosphate (PIP2), phosphatidylethanolamine (PE), and Na-cholate in the assay buffer for 10 minutes, adding MgCl2 and incubating on ice for 20 minutes, for final concentrations of 25 μM PIP2, 300 μM PE, 0.02% Na-cholate, and 10 mM MgCl2 in the reaction. The reactions were started by adding equal volumes lipid and enzyme mixture in a total volume of 50 μL, allowed to run for 20 minutes at room temperature, and stopped with 100 μL 75 mM H3PO4. The lipid product was transferred to a glass fiber filter plate and washed with 75 mM H3PO4 several times. The presence of radioactive lipid product (PIP3) was measured by adding Wallac Optiphase mix to each well and counting in a Wallac 1450 Trilux plate reader (PerkinElmer Life Sciences Inc., Boston, Mass. 02118). The IC50 for each compound tested is reported in μM in Table 1: […]

T1 sequence (P48736 whole entry, species assumed): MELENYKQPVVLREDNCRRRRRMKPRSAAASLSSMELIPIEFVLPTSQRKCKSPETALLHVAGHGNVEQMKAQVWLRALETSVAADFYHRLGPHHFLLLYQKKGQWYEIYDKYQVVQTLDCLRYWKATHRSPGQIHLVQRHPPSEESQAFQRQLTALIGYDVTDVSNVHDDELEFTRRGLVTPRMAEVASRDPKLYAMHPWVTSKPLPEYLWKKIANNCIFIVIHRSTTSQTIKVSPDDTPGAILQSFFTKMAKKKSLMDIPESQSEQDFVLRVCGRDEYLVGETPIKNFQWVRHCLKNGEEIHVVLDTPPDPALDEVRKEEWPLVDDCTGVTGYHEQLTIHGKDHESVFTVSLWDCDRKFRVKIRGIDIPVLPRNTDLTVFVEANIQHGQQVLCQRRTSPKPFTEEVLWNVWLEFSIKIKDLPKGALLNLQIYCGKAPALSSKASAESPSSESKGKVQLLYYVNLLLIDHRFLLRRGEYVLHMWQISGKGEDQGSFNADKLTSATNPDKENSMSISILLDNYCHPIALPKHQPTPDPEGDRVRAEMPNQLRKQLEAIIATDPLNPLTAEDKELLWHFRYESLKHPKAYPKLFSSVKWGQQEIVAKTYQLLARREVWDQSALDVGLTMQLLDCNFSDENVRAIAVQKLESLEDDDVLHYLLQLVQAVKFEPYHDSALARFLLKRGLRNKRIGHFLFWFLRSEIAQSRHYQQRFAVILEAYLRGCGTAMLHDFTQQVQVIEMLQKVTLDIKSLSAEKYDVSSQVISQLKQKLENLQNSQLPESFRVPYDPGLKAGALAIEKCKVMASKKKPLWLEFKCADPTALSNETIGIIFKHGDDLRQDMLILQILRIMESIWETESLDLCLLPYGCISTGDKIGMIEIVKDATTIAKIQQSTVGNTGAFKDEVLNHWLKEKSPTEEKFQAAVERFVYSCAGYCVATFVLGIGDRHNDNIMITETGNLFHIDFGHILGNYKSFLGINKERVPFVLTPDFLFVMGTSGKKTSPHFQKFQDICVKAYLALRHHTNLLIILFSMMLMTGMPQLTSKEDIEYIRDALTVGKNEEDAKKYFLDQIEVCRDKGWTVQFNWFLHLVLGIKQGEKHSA
T1 sequence (Q8WYR1 whole entry partner, species assumed): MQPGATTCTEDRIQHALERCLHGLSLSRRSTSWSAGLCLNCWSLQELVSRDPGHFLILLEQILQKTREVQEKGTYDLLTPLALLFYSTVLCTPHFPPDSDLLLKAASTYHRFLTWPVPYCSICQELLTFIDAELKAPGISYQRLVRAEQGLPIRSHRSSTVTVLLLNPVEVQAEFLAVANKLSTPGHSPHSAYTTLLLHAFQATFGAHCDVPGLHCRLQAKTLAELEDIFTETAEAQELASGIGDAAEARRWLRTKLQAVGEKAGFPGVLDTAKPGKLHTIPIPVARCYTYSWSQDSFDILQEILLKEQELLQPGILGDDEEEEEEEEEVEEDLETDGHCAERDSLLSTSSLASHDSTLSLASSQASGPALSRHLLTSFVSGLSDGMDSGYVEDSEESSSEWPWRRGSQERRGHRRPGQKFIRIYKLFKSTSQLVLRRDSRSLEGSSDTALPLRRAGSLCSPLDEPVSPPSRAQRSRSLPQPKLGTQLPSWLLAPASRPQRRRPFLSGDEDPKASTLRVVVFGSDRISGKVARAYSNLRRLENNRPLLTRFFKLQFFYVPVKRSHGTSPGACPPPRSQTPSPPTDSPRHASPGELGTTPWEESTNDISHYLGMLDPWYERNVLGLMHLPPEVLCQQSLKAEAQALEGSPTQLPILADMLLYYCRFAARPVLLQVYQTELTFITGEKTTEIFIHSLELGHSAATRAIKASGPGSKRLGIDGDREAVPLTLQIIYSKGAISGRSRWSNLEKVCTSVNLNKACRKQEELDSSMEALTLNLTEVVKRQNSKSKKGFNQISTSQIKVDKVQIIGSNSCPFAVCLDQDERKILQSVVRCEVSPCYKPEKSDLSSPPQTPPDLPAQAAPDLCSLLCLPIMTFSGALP

Compound	IC50
COc1cc2c(Oc3ccc(CC4CCCC4)cc3)c(C(=O)Nc3nn[nH]n3)sc2cc1C [Example B.32, 3-(4-Cyclopentylmethyl-phenoxy)-5-methoxy-6-methyl-benzo[b]thiophene-2-carboxylic acid (2H-tetrazol-5-yl)-amide]	36 nM
COc1cc2c(Oc3ccc(OC4CCC4)cc3)c(C(=O)Nc3nn[nH]n3)sc2cc1C [Example B.33, 3-(4-Cyclobutoxy-phenoxy)-5-methoxy-6-methyl-benzo[b]thiophene-2-carboxylic acid (2H-tetrazol-5-yl)-amide]	7 nM
COc1cc2c(Oc3cncnc3N3CCCCC3)c(C(=O)Nc3nn[nH]n3)sc2cc1C [Example B.37, 5-Methoxy-6-methyl-3-(4-piperidin-1-yl-pyrimidin-5-yloxy)-benzo[b]thiophene-2-carboxylic acid (2H-tetrazol-5-yl)-amide]	89 nM
COc1cc2c(Oc3ccc(Br)cc3)c(C(=O)Nc3nn[nH]n3)sc2cc1C [Example B.38, 3-(4-Bromo-phenoxy)-5-methoxy-6-methyl-benzo[b]thiophene-2-carboxylic acid (2H-tetrazol-5-yl)-amide]	16 nM
COc1cc2c(Oc3ccc(C4CCC(C)C4)cc3)c(C(=O)Nc3nn[nH]n3)sc2cc1C (stereo not drawn) [Example B.49, 5-Methoxy-6-methyl-3-[4-(3-methyl-cyclopentyl)-phenoxy]-benzo[b]thiophene-2-carboxylic acid (2H-tetrazol-5-yl)-amide]	71 nM
COc1cc2c(Oc3ccc(OC4CCC(C)C4)cc3)c(C(=O)Nc3nn[nH]n3)sc2cc1C (stereo not drawn) [Example B.50, 5-Methoxy-6-methyl-3-[4-(3-methyl-cyclopentyloxy)-phenoxy]-benzo[b]thiophene-2-carboxylic acid (2H-tetrazol-5-yl)-amide]	51 nM
CCCCC1CCCC(c2ccc(Oc3c(C(=O)Nc4nn[nH]n4)sc4cc(C)c(OC)cc34)cc2)C1 (stereo not drawn) [Example B.52, 3-[4-(3-Butyl-cyclohexyl)-phenoxy]-5-methoxy-6-methyl-benzo[b]thiophene-2-carboxylic acid (2H-tetrazol-5-yl)-amide]	1310 nM
COc1cc2c(Oc3ccc(C4CCC(C)(C)CC4)cc3)c(C(=O)Nc3nn[nH]n3)sc2cc1C [Example B.55, 3-[4-(4,4-Dimethyl-cyclohexyl)-phenoxy]-5-methoxy-6-methyl-benzo[b]thiophene-2-carboxylic acid (2H-tetrazol-5yl)-amide]	102 nM
COc1cc2c(Oc3ccc(C4CCCCCC4)cc3)c(C(=O)Nc3nn[nH]n3)sc2cc1C [Example B.57, 3-(4-cycloheptyl-phenoxy)-5-methoxy-6-methyl-benzo[b]thiophene-2-carboxylic acid (2H-tetrazol-5-yl)amide]	40 nM
COc1cc2c(Oc3ccc(C4CCCC4)cc3)c(C(=O)Nc3nn[nH]n3)sc2cc1C [Example B.58, 3-(4-cyclopentyl-phenoxy)-5-methoxy-6-methyl-benzo[b]thiophene-2-carboxylic acid (2H-tetrazol-5-yl)amide]	35 nM
COCC1(c2ccc(Oc3c(C(=O)Nc4nn[nH]n4)sc4cc(C)c(OC)cc34)cc2)CCCC1 [Example B.59, 5-Methoxy-3-[4-(1-methoxymethyl-cyclopentyl)-phenoxy]-6-methyl-benzo[b]thiophene-2-carboxylic acid (2H-tetrazol-5-yl)-amide]	25 nM
COc1cc2c(Oc3ccc(C4CCC(=O)CC4)cc3)c(C(=O)Nc3nn[nH]n3)sc2cc1C [Example B.60, 5-Methoxy-6-methyl-3-[4-(4-oxo-cyclohexyl)-phenoxy]-benzo[b]thiophene-2-carboxylic acid (2H-tetrazol-5-yl)-amide]	22 nM
COc1cc2c(Oc3ccc(C4(C(N)=O)CCCC4)cc3)c(C(=O)Nc3nn[nH]n3)sc2cc1C [Example B.64, 3-[4-(1-carbamoyl-cyclopentyl)-phenoxy]-5-methoxy-6-methyl-benzo[b]thiophene-2-carboxylic acid (2H-tetrazol-5-yl)-amide]	9 nM

Results, then the compound that gave them:

IC50	Compound
110 nM	COc1cc2c(Oc3cccc(OC4CCCC4)c3)c(C(=O)Nc3nn[nH]n3)sc2cc1C [Example B.34, 3-(3-Cyclopentyloxy-phenoxy)-5-methoxy-6-methyl-benzo[b]thiophene-2-carboxylic acid (2H-tetrazol-5-yl)-amide]
18 nM	COc1cc2c(Oc3ccc(F)cc3)c(C(=O)Nc3nn[nH]n3)sc2cc1C [Example B.39, 3-(4-Fluoro-phenoxy)-5-methoxy-6-methyl-benzo[b]thiophene-2-carboxylic acid (2H-tetrazol-5-yl)-amide]
22 nM	COc1cc2c(Oc3ccc(Cl)cc3F)c(C(=O)Nc3nn[nH]n3)sc2cc1C [Example B.40, 3-(4-Chloro-2-fluoro-phenoxy)-5-methoxy-6-methyl-benzo[b]thiophene-2-carboxylic acid (2H-tetrazol-5-yl)-amide]
135 nM	COc1cc2c(Oc3ccc(Cl)c(F)c3)c(C(=O)Nc3nn[nH]n3)sc2cc1C [Example B.41, 3-(4-Chloro-3-fluoro-phenoxy)-5-methoxy-6-methyl-benzo[b]thiophene-2-carboxylic acid (2H-tetrazol-5-yl)-amide]
180 nM	COc1cc2c(Oc3cccc(C(F)(F)F)c3)c(C(=O)Nc3nn[nH]n3)sc2cc1C [Example B.42, 5-Methoxy-6-methyl-3-(3-trifluoromethyl-phenoxy)-benzo[b]thiophene-2-carboxylic acid (2H-tetrazol-5-yl)-amide]
56 nM	COc1cc2c(Oc3ccc([N+](=O)[O-])cc3)c(C(=O)Nc3nn[nH]n3)sc2cc1C [Example B.43, 5-Methoxy-6-methyl-3-(4-nitro-phenoxy)-benzo[b]thiophene-2-carboxylic acid (2H-tetrazol-5-yl)-amide]
165 nM	COc1cc2c(Oc3ccc(Cl)c(Cl)c3)c(C(=O)Nc3nn[nH]n3)sc2cc1C [Example B.44, 3-(3,4-Dichloro-phenoxy)-5-methoxy-6-methyl-benzo[b]thiophene-2-carboxylic acid (2H-tetrazol-5-yl)-amide]
17 nM	COc1cc2c(Oc3ccc(OC(F)(F)F)cc3)c(C(=O)Nc3nn[nH]n3)sc2cc1C [Example B.45, 5-Methoxy-6-methyl-3-(4-trifluoromethoxy-phenoxy)-benzo[b]thiophene-2-carboxylic acid (2H-tetrazol-5-yl)-amide]
120 nM	COc1cc2c(Oc3cccnc3)c(C(=O)Nc3nn[nH]n3)sc2cc1C [Example B.46, 5-Methoxy-6-methyl-3-(pyridin-3-yloxy)-benzo[b]thiophene-2-carboxylic acid (2H-tetrazol-5-yl)-amide]
58 nM	COc1cc2c(Oc3ccc(S(C)(=O)=O)cc3)c(C(=O)Nc3nn[nH]n3)sc2cc1C [Example B.47, 3-(4-Methanesulfonyl-phenoxy)-5-methoxy-6-methyl-benzo[b]thiophene-2-carboxylic acid (2H-tetrazol-5-yl)-amide]
61 nM	COc1cc2c(Oc3ccc(Cl)cc3)c(C(=O)Nc3nn[nH]n3)sc2cc1C [Example B.51, 3-(4-Chloro-phenoxy)-5-Methoxy-6-methyl-benzo[b]thiophene-2-carboxylic acid (2H-tetrazol-5-yl)-amide]
